Source: patent US20040192905A1, “Polymerizable monomers and process of preparation thereof” (priority 2003, published 2004)

Key:
lysozyme [1] = biological target: T1, lysozyme (Gallus gallus, UniProt P00698); assay: Estimation of binding constant (Kb) by fluorescence spectrophotometric method; settings: relative to NAG
Description: Estimation of binding constant (Kb) of monomers containing NAG by fluorescence spectrophotometric method and the enhancement resulting from conjugation with monomers and monomer containing spacer.
Fluorescence spectra of lysozyme were recorded on a Perkin Elmer LS-50 B luminescence spectrophotometer. Excitation frequency was 285 nm, Solutions of lysozyme and N-Acetyl Glucosamine were prepared in 0.066 M phosphate buffer pH 6.2, containing 0.0154 M sodium chloride and 0.008 M sodium azide. 0 1 milliliter of lysozyme 80 μg/ml was mixed with solution containing different ligand concentration in a 2 ml capacity 10 mm square quartz cells maintained at 18 0 C.
Phosphate buffer was added to make the volume to 2 ml. The fluorescence intensities of the solutions were measured, relative to the solutions containing enzymes and buffer mixtures of the identical concentrations reference. […]

lysozyme [2] = biological target: T1, lysozyme; assay: Estimation of relative inhibition of lysozyme (Micrococcus lysodeikticus substrate, absorbance at 450 nm); format: biochemical; settings: for 1max: ligand concentration at Imax; for Imax: maximum relative inhibition of lysozyme; for IC50: phosphate buffer pH 6.2, 20 C, Micrococcus lysodeikticus substrate, read-out: I50
Description: This example describes the estimation of inhibition of lysozyme by monomers Micrococcus lysodeikticus is a substrate for the enzyme lysozyme. Relative binding of monomers and monomers linked to NAG through the spacer arm was estimated by using a procedure reported by Neuberger and Wilson (1967).
1 5% w/v stock solutions of monomeric ligands was prepared in […] phosphate buffer pH 6.2 containing 0.01 54 m sodium chloride and 0.008 M sodium azide. One milliliter of stock solution containing different ligand concentration was mixed with 1.6 ml of 78 Jig/ml of Micrococcus lysodeikticus in a 3-ml capacity glass cuvette. The mixture was incubated for 5 minutes at 20 0 C. To this mixture 0.1 ml of lysozyme (27 μg/ml) was added and mixed thoroughly. The relative absorbance at 450 nm (Δ450) was recorded for 30 seconds. A blank reading without the ligand was noted and the change in the absorbance per second was calculated. Then relative inhibition was calculated

T1 sequence (P00698 19-147): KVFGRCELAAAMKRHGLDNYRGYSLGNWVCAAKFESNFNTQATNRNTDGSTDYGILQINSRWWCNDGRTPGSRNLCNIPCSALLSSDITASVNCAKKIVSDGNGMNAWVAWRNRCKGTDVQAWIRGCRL

Compound: C=CC(=O)OC[C@H]1OC(O)[C@H](NC(C)=O)[C@@H](O)[C@@H]1O (stereo partly shown) [Ac. NAG, Acryloyl N-Acetyl Glacosamine]
- increase in binding constant compared to N-Acetyl Glucosamine (lysozyme [1]): 74 times
- 1max (lysozyme [2]): 14.81 mM
- Imax (lysozyme [2]): 50.00
- IC50 (lysozyme [2]): 14.8 mM

Compound: CC(=O)N[C@H]1C(O)O[C@H](CO)[C@@H](O)[C@@H]1O (stereo partly shown) [NAG, N-Acetyl Glucosamine, reference compound]
- 1max (lysozyme [2]): 92.5 mM
- Imax (lysozyme [2]): 55.29
- IC50 (lysozyme [2]): 74 mM

Compound: Acryloyl 6-Amino Caproic Acid N-Acetyl Glucosamine [Ac 6ACA.NAG]
- 1max (lysozyme [2]): 0.036 mM
- Imax (lysozyme [2]): 52.5
- IC50 (lysozyme [2]): 0.035 mM
